Assay results: PubChem BioAssay (NCI)
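Interpolation was linear, between the two tested concentrations surrounding the appropriate level; five concentrations were tested over 48 hours in 96-well plates. Here, GI50 denotes the concentration required for 50% inhibition of growth. TGI is the concentration that stops growth completely.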

How the values were obtained:
Test in all cases: growth of human tumour cells (NCI), 48 h; in the data active means GI50 below about 0.43 µM; inactive means the rest
NCI-H23 lung = system: NCI-H23 lung
NCI-H460 lung = system: NCI-H460 lung
NCI-H522 lung = system: NCI-H522 lung
NCI/ADR-RES ovarian = system: NCI/ADR-RES ovarian
OVCAR-3 ovarian = system: OVCAR-3 ovarian
OVCAR-4 ovarian = system: OVCAR-4 ovarian
OVCAR-5 ovarian = system: OVCAR-5 ovarian
OVCAR-8 ovarian = system: OVCAR-8 ovarian
PC-3 prostate = system: PC-3 prostate
RPMI-8226 leukemia = system: RPMI-8226 leukemia
RXF 393 renal = system: RXF 393 renal
SF-268 CNS = system: SF-268 CNS
SF-295 CNS = system: SF-295 CNS
SF-539 CNS = system: SF-539 CNS
SK-MEL-2 melanoma = system: SK-MEL-2 melanoma
SK-MEL-28 melanoma = system: SK-MEL-28 melanoma
SK-MEL-5 melanoma = system: SK-MEL-5 melanoma
SK-OV-3 ovarian = system: SK-OV-3 ovarian
SN12C renal = system: SN12C renal
SNB-19 CNS = system: SNB-19 CNS
SNB-75 CNS = system: SNB-75 CNS
SR leukemia = system: SR leukemia
SW-620 colon = system: SW-620 colon
TK-10 renal = system: TK-10 renal
U251 CNS = system: U251 CNS
UACC-257 melanoma = system: UACC-257 melanoma
UACC-62 melanoma = system: UACC-62 melanoma
UO-31 renal = system: UO-31 renal

O=C(c1ccco1)c1nc2ccc(Cl)cc2[n+]([O-])c1C(F)(F)F
62 µM: TGI (RXF 393 renal)
> 100 µM: TGI (NCI-H23 lung) | TGI (NCI-H460 lung) | TGI (NCI-H522 lung) | TGI (NCI/ADR-RES ovarian) | TGI (OVCAR-3 ovarian) | TGI (OVCAR-4 ovarian) | TGI (OVCAR-5 ovarian) | TGI (OVCAR-8 ovarian) | TGI (PC-3 prostate) | TGI (RPMI-8226 leukemia) | TGI (SF-268 CNS) | TGI (SF-295 CNS) | TGI (SF-539 CNS) | TGI (SK-MEL-2 melanoma) | TGI (SK-MEL-28 melanoma) | TGI (SK-MEL-5 melanoma) | TGI (SK-OV-3 ovarian) | TGI (SN12C renal) | TGI (SNB-19 CNS) | TGI (SNB-75 CNS) | TGI (SR leukemia) | TGI (SW-620 colon) | TGI (TK-10 renal) | TGI (U251 CNS) | TGI (UACC-257 melanoma) | TGI (UACC-62 melanoma) | TGI (UO-31 renal)
inactive: GI50 (NCI-H23 lung) > 100 µM | GI50 (NCI-H460 lung) 91.4 µM | GI50 (NCI-H522 lung) > 100 µM | GI50 (NCI/ADR-RES ovarian) > 100 µM | GI50 (OVCAR-3 ovarian) > 100 µM | GI50 (OVCAR-4 ovarian) > 100 µM | GI50 (OVCAR-5 ovarian) > 100 µM | GI50 (OVCAR-8 ovarian) 64.9 µM | GI50 (PC-3 prostate) 37.1 µM | GI50 (RPMI-8226 leukemia) 31.1 µM | GI50 (RXF 393 renal) 27.4 µM | GI50 (SF-268 CNS) 50.1 µM | GI50 (SF-295 CNS) > 100 µM | GI50 (SF-539 CNS) > 100 µM | GI50 (SK-MEL-2 melanoma) > 100 µM | GI50 (SK-MEL-28 melanoma) > 100 µM | GI50 (SK-MEL-5 melanoma) 90.3 µM | GI50 (SK-OV-3 ovarian) > 100 µM | GI50 (SN12C renal) > 100 µM | GI50 (SNB-19 CNS) 72.6 µM | GI50 (SNB-75 CNS) 52.8 µM | GI50 (SR leukemia) 66.3 µM | GI50 (SW-620 colon) > 100 µM | GI50 (TK-10 renal) 62.7 µM | GI50 (U251 CNS) 69.8 µM | GI50 (UACC-257 melanoma) > 100 µM | GI50 (UACC-62 melanoma) > 100 µM | GI50 (UO-31 renal) > 100 µM
